Measured values published in patent US20200239420A1, “MODULATORS OF INDOLEAMINE 2,3-DIOXYGENASE” (GLAXOSMITHKLINE INTELLECTUAL PROPERTY DEVELOPMENT LIMITED, priority 2017, published 2020).

Legend:
[1] = biological target: T1, indoleamine 2, 3-dioxygenase (IDO1) (Homo sapiens, UniProt P14902); test: IDO1 PBMC RapidFire MS assay (kynurenine detection); format: cell-based; settings: IFN-γ/LPS-stimulated human PBMC, 2 days, kynurenine by mass spectrometry; read-out: PBMC pIC50 (converted)
T1 construct: to induce the expression of indoleamine 2, 3-dioxygenase (IDO1); host or cells: human PBMC stimulated with IFN-gamma and LPS
T1 sequence (P14902 whole entry): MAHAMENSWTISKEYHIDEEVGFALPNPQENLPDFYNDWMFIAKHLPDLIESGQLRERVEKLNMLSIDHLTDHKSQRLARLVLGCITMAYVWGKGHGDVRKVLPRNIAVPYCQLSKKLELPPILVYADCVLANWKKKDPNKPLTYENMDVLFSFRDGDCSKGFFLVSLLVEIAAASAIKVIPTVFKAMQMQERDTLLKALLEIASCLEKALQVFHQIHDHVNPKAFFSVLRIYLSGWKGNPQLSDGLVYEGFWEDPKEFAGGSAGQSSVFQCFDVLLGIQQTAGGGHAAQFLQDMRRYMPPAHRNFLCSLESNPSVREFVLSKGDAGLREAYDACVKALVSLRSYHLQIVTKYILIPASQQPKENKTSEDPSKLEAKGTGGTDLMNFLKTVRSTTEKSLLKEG
Description: (§1) Compounds of the present invention were tested via high-throughput cellular assays utilizing detection of kynurenine via mass spectrometry and cytotoxicity as end-points. For the mass spectrometry and cytotoxicity assays, human peripheral blood mononuclear cells (PBMC) (PB003F; AllCells®, Alameda, Calif.) were stimulated with human interferon-γ (IFN-γ) (Sigma-Aldrich Corporation, St. Louis, Mo.) and lipopolysaccharide from Salmonella minnesota (LPS) (Invivogen, San Diego, Calif.) to induce the expression of indoleamine 2, 3-dioxygenase (IDO1). Compounds with IDO1 inhibitory properties decreased the amount of kynurenine produced by the cells via the tryptophan catabolic pathway. Cellular toxicity due to the effect of compound treatment was measured using CellTiter-Glo® reagent (CTG) (Promega Corporation, Madison, Wis.), which is based on luminescent detection of ATP, an indicator of metabolically active cells.
(§2) In preparation for the assays, test compounds were serially diluted 3-fold in DMSO from a typical top concentration of 1 mM or 5 mM and plated at 0.5 μL in 384-well, polystyrene, clear bottom, tissue culture treated plates with lids (Greiner Bio-One, Kremsmünster, Austria) to generate 11-point dose response curves. Low control wells (0% kynurenine or 100% cytotoxicity) contained either 0.5 μL of DMSO in the presence of unstimulated (−IFN-γ/−LPS) PBMCs for the mass spectrometry assay or 0.5 μL of DMSO in the absence of cells for the cytotoxicity assay, and high control wells (100% kynurenine or 0% cytotoxicity) contained 0.5 μL of DMSO in the presence of stimulated (+IFN-γ/+LPS) PBMCs for both the mass spectrometry and cytotoxicity assays.
(§3) Frozen stocks of PBMCs were washed and recovered in RPMI 1640 medium (Thermo Fisher Scientific, Inc., Waltham, Mass.) supplemented with 10% v/v heat-inactivated fetal bovine serum (FBS) (Thermo Fisher Scientific, Inc., Waltham, Mass.), and 1× penicillin-streptomyci antibiotic solution (Thermo Fisher Scientific, Inc., Waltham, Mass.). The cells were diluted to 1,000,000 cells/mL in the supplemented RPMI 1640 medium. 50 μL of either the cell suspension, for the mass spectrometry assay, or medium alone, for the cytotoxicity assay, were added to the low control wells, on the previously prepared 384-well compound plates, resulting in 50,000 cells/well or 0 cells/well respectively. IFN-γ and LPS were added to the remaining cell suspension at final concentrations of 100 ng/ml and 50 ng/ml respectively, and 50 μL of the stimulated cells were added to all remaining wells on the 384-well compound plates. The plates, with lids, were then placed in a 37 °C, 5% CO2 humidified incubator for 2 days.
(§4) Following incubation, the 384-well plates were removed from the incubator and allowed to equilibrate to room temperature for 30 minutes. For the cytotoxicity assay, CellTiter-Glo® was prepared according to the manufacturer's instructions, and 40 μL were added to each plate well. After a twenty-minute incubation at room temperature, luminescence was read on an EnVision® Multilabel Reader (PerkinElmer Inc., Waltham, Mass.). For the mass spectrometry assay, 10 μL of supernatant from each well of the compound-treated plates were added to 40 μL of acetonitrile, containing 10 μM of an internal standard for normalization, in 384-well, polypropylene, V-bottom plates (Greiner Bio-One, Kremsmünster, Austria) to extract the organic analytes. Following centrifugation at 2000 rpm for 10 minutes, 10 μL from each well of the acetonitrile extraction plates were added to 90 μL of sterile, distilled H2O in 384-well, polypropylene, V-bottom plates for analysis of kynurenine and the internal standard on the RapidFire 300 (Agilent Technologies, Santa Clara, Calif.) and 4000 QTRAP MS (SCIEX, Framingham, Mass.). MS data were integrated using Agilent Technologies' RapidFire Integrator software, and data were normalized for analysis as a ratio of kynurenine to the internal standard. […]

Rat PK = format: in vivo; settings: male Han Wistar rats, n = 3
[2] = system: human peripheral blood mononuclear cells (PBMC); test: PBMC cytotoxicity assay (CellTiter-Glo); format: cell-based; settings: 48 h; IFN-γ/LPS-stimulated human PBMC, 2 days, CellTiter-Glo cytotoxicity (pCC50); read-out: PBMC TOX pIC50 (converted)
Description: as §1, §2, §3, §4

Row | SMILES | IC50 [1] [nM] | AUC(0-inf) (Rat PK; rat, in vivo, PO, 3 mg/kg) [ng·h/mL] | AUC(0-t) (Rat PK; rat, in vivo, PO, 3 mg/kg) [ng·h/mL] | Cmax (Rat PK; rat, in vivo, PO, 3 mg/kg) [ng/mL] | Tmax (Rat PK; rat, in vivo, PO, 3 mg/kg) [h] | half-life (Rat PK; rat, in vivo, PO, 3 mg/kg) [h] | IC50 [2] [nM] | further results
1 | O=C(NC1CC2(CCC(c3ccnc4ccccc34)CC2)C1)c1ccc(Cl)s1 (centres unmarked) [Example 4, 5-chloro-N-(7-(quinolin-4-yl)spiro[3.5]nonan-2-yl)thiophene-2-carboxamide] | 20 | 15500 | 14400 | 1140 | 3 | 5.89 | > 10000 | 
2 | O=C(Nc1ccc(Cl)cc1)C1CC2(CCC(c3ccnc4ccc(F)cc34)CC2)C1 (centres unmarked) [Example 6, N-(4-chlorophenyl)-7-(6-fluoroquinolin-4-yl)spiro[3.5]nonane-2-carboxamide] | 15.8 |  |  |  |  |  | > 10000 | 
3 | O=C(Nc1ccc(Cl)cc1)[C@@H]1C[C@]12CC[C@H](c1ccnc3ccccc31)CC2 (relative stereo) [Example 1, cis-N-(4-chlorophenyl)-6-(quinolin-4-yl)spiro[2.5]octane-1-carboxamide] | 63.1 | 14000 | 12300 | 1000 | 1 | 7.16 | > 10000 | F (Rat PK; PO, 3 mg/kg): 60.2%; AUC(0-inf) (Rat PK; rat, in vivo, IV, 1 mg/kg): 4660 ng·h/mL; AUC(0-t) (Rat PK; rat, in vivo, IV, 1 mg/kg): 4450 ng·h/mL; MRT inf (Rat PK; rat, in vivo, IV, 1 mg/kg): 7.35 h; clearance (Rat PK; rat, in vivo, IV, 1 mg/kg): 3.58 mL/min/kg; half-life (Rat PK; rat, in vivo, IV, 1 mg/kg): 5.36 h; Vd (Rat PK; rat, in vivo, IV, 1 mg/kg, read-out: Vss): 1.58 L/kg
4 | O=C(CC1CC2(CCC(c3ccnc4ccccc34)CC2)C1)Nc1ccc(Cl)cc1 (centres unmarked) [Example 5, N-(4-chlorophenyl)-2-(7-(quinolin-4-yl)spiro[3.5]nonan-2-yl)acetamide] | 63.1 |  |  |  |  |  | > 10000 | 
5 | O=C(Nc1ccc(Cl)cc1)[C@@H]1C[C@]12CC[C@@H](c1ccnc3ccccc31)CC2 (relative stereo) [Example 2, trans-N-(4-chlorophenyl)-6-(quinolin-4-yl)spiro[2.5]octane-1-carboxamide] | 126 |  |  |  |  |  | > 10000 | 
6 | O=C(NC1CC2(CCC(c3ccnc4ccccc34)CC2)C1)c1ccc(Cl)cc1 (centres unmarked) [Example 3, 4-chloro-N-(7-(quinolin-4-yl)spiro[3.5]nonan-2-yl)benzamide] | 79.4 |  |  |  |  |  | > 10000 | 
